In the assay the test system is TGFβ/SMAD Signaling Pathway SBE reporter cell line. Kind of assay: TGFβ reporter assay, in vitro small molecule screening (luciferase). In kind it is cell-based. The note with it: TGFβ stimulation, luminescence. As to the method:
TGFβ/SMAD Signaling Pathway SBE reporter cell line was obtained from BPS Bioscience. Cells were passed, expanded, and stored in liquid nitrogen as per the supplier's instructions with the exception that growth media is changed to DMEM-C with Geneticin (DMEM supplemented with 10% fetal bovine serum, 1×NEAA, 1 mM Pyruvate, 2 mM glutamine, 50 μg/mL penicillin, 50 U/mL streptomycin and 400 μg/mL of Geneticin). The assay media was MEM supplemented with 0.5% fetal bovine serum, 1×NEAA, 1 mM Pyruvate, 50 μg/mL penicillin and 50 U/mL streptomycin.
Test samples (at desired concentrations diluted in assay media) were added to a 96-well assay plate, 20 μL per well. Reporter cells were harvested from the tissue culture flasks by incubation in small quantity of PBS at 37° C. for two minutes after the media in the flask is removed and cells rinsed with PBS. Cells were counted and diluted in the assay media at approximately 0.5×10^6 cells/mL and then 80 μL/well of cells were added to the assay plate containing the 20 μL/well of test samples (or media only), and incubated for approximately 5-6 hours at 37° C. in a 5% CO2 humidified incubator. After that time, 15 μL of TGFβ diluted to 12 ng/mL in the assay media was added to the plate. Controls included TGFβ titration (from 50 to 0 ng/mL) without inhibitors, and media only (without cells, inhibitor or TGFβ). Plates were incubated at 37° C. in a 5% CO2 humidified incubator for 18 h. Luciferase substrate solution is subsequently added at 100 μL per well, incubated in the dark at room temperature for 15 min, and luminescence is measured using a luminometer. EC50 values and curve fits were obtained using Prism (GraphPad Software).

Drawing on patent publication US20220362396A1, “AMINO-PYRAZINECARBOXAMIDE COMPOUNDS, CONJUGATES, AND USES THEREOF” (Silverback Therapeutics, Inc., priority 2018, published 2022), this text covers EC50 for 25 compounds.

A word on the EC50: it is the concentration needed to bring the measured effect to its halfway point. A higher EC50 goes with a less potent agent.

A value given as a limit tells only on which side of the number the result lay.

`Nc1ncc(-c2ccc(N3CCN(CCO)CC3)cc2)nc1C(=O)Nc1cnccc1N1CCOCC1` [Compound 289]: the EC50 was 50 to 100 nM.

Compound `Nc1ncc(-c2ccc(CCNC(=O)[C@H](CCC(=O)O)NC(=O)OCc3ccccc3)cc2)nc1C(=O)Nc1cnccc1N1CCOCC1` [Compound 11] gave a 50% effective concentration (EC50) above 1000 nM.

Compound `CC(C)(C)OC(=O)N[C@H]1CCCN(c2ccc(-c3cnc(N)c(C(=O)Nc4cnccc4N4CCOCC4)n3)cc2)C1` [Compound 286] showed an EC50 of 100 to 1000 nM.

Regarding `CC(=O)c1ccc(C(=O)NCCc2ccc(-c3cnc(N)c(C(=O)Nc4cnccc4N4CCOCC4)n3)cc2)cc1` [Compound 58], the half-maximal effective concentration (EC50) is 100 to 1000 nM.

For the compound `COCCNc1ccncc1NC(=O)c1nc(-c2ccc(CCN)cc2)cnc1N` [Compound 100], the EC50 was above 1000 nM.

Consider `CC(S)CCC(=O)NCC(C)Oc1ccc(-c2cnc(N)c(C(=O)Nc3cnccc3N3CCOCC3)n2)cc1` (stereo not shown) [Compound 287], for which the EC50 was 100 to 1000 nM.

In turn, `Nc1ncc(-c2ccc(N[C@@H]3CCNC3)cc2)nc1C(=O)Nc1cnccc1N1CCOCC1` [Compound 281] had an EC50 of 100 to 1000 nM.

`Nc1ncc(-c2ccc([C@@H]3CNC[C@H]3C(=O)O)cc2)nc1C(=O)Nc1cnccc1N1CCOCC1` [Compound 231] had an EC50 above 1000 nM.

With `Nc1ncc(-c2ccc(N(CCO)CCNC(=O)OCc3ccccc3)cc2)nc1C(=O)Nc1cnccc1N1CCOCC1` [Compound 293], the concentration giving a half-maximal response (EC50) was in the range of 100 to 1000 nM.

For the compound `C[C@H](CO)N(C)c1ccc(-c2cnc(N)c(C(=O)Nc3cnccc3N3CCOCC3)n2)cc1` [Compound 296], the EC50 was below 50 nM.

Compound `CC(CNC(=O)CCC(C)(C)S)Oc1ccc(-c2cnc(N)c(C(=O)Nc3cnccc3N3CCOCC3)n2)cc1` (stereo not shown) [Compound 288] came in with an EC50 of 100 to 1000 nM.

Consider `Nc1ncc(-c2ccc(N3CCC[C@@H](N)C3)cc2)nc1C(=O)Nc1cnccc1N1CCOCC1` [Compound 283], for which the EC50 was in the range of 100 to 1000 nM.

With `CN(c1ccc(-c2cnc(N)c(C(=O)Nc3cnccc3N3CCOCC3)n2)cc1)C1CCNCC1` [Compound 301], the EC50 lay in the range of 50 to 100 nM.

`CN(C)C1CCN(c2ccc(-c3cnc(N)c(C(=O)Nc4cnccc4N4CCOCC4)n3)cc2)CC1` [Compound 290] gave an EC50 below 50 nM.

`COC(=O)[C@@H](C)N(C)c1ccc(-c2cnc(N)c(C(=O)Nc3cnccc3N3CCOCC3)n2)cc1` [Compound 294] came in with an EC50 of 100 to 1000 nM.

In turn, `COC(=O)[C@H](C)N(C)c1ccc(-c2cnc(N)c(C(=O)Nc3cnccc3N3CCOCC3)n2)cc1` [Compound 297] displayed a concentration giving a half-maximal response (EC50) of 100 to 1000 nM.

`CN(c1ccc(-c2cnc(N)c(C(=O)Nc3cnccc3N3CCOCC3)n2)cc1)[C@@H]1CCN(C(=O)OC(C)(C)C)C1` [Compound 300] gave an EC50 of 100 to 1000 nM.

Consider `CC(C)(C)OC(=O)N1CC[C@@H](Nc2ccc(-c3cnc(N)c(C(=O)Nc4cnccc4N4CCOCC4)n3)cc2)C1` [Compound 282], for which the concentration for a half-maximal effect (EC50) lay within 100 to 1000 nM.

Take `CN(c1ccc(-c2cnc(N)c(C(=O)Nc3cnccc3N3CCOCC3)n2)cc1)C1CCN(C(=O)OC(C)(C)C)CC1` [Compound 291]: the half-maximal effective concentration (EC50) lay within 100 to 1000 nM.

For the compound `CC(C)(C)OC(=O)N[C@@H]1CCCN(c2ccc(-c3cnc(N)c(C(=O)Nc4cnccc4N4CCOCC4)n3)cc2)C1` [Compound 284], the EC50 fell in the range of 100 to 1000 nM.

The compound `COCCNc1ccncc1NC(=O)c1nc(-c2ccc(CCNC(=O)OCc3ccccc3)cc2)cnc1N` [Compound 99] came in with an EC50 above 1000 nM.

In the case of `NCCN(CCO)c1ccc(-c2cnc(N)c(C(=O)Nc3cnccc3N3CCOCC3)n2)cc1` [Compound 292], the EC50 was in the range of 100 to 1000 nM.

The compound `Cc1cc(CNC(=O)OCc2ccccc2)ccc1-c1cnc(N)c(C(=O)Nc2cnccc2N2CCOCC2)n1` [Compound 60] gave an EC50 of 100 to 1000 nM.

`CC(C)(C)OC(=O)N[C@@H](CCCCN)C(=O)NCCc1ccc(-c2cnc(N)c(C(=O)Nc3cnccc3N3CCOCC3)n2)cc1` [Compound 12] came in with an EC50 of 100 to 1000 nM.

`C[C@H](C(=O)O)N(C)c1ccc(-c2cnc(N)c(C(=O)Nc3cnccc3N3CCOCC3)n2)cc1` [Compound 295]: the EC50 fell in the range of 100 to 1000 nM.
